In US6036957A, “Suppression of T-cell proliferation using peptide fragments of myelin basic protein” (Autoimmune, Inc., priority 1995, dated 2000):

How the values were obtained:
[1] = test system: MBP reactive T-cell lines; assay: Reactivity of MBP-reactive T-cell lines to overlapping human MBP peptides (proliferation assay); assay type: cell-based; details: for mean frequency of T-cell lines selectively reactive to the peptide, MS vs controls (FIG. 1): result in words
Method: A rapid T-cell cloning technique was used to examine whether there were immunodominant epitopes on human MBP reactive with Class II MHC phenotypes and the frequency of such reactivity. A total of 15,824 short term T-cell lines were generated from 51 human subjects by culturing peripheral blood mononuclear cells ([…]) with purified MBP (100 μg) followed 3 days later, and then every 3-4 days, by the addition of interleukin-2 (IL-2; from ABI, Columbia, Md.) and 2 units recombinant interleukin-4 (IL-4; Genzyme, Boston, Mass.). On Day 13 of culture, an aliquot from each line was tested for reactivity to MBP using the following proliferation assay: T-cell clones (1×10^5 cells/well) were plated in triplicate and cocultured with appropriate stimuli (i.e. 100 μg whole MBP or 5% IL-2) for 72 hours at 37° C., 90% humidity, 5% CO2, in 96 well flat bottomed microtiter plates (Costar). The cells were pulsed with 2 μCi [^3 H]TdR (2 Ci/mmole, New England Nuclear, Boston, Mass.) for the last 18 hours of culture. APCs were prepared by pulsing human Epstein-Barrvirus transformed human B-cells (the virus being commercially available from ATCC) or L-cells which are mouse cells transfected with human DR2 (L-cells are commercially available from ATCC under accession No. ATCC-CCL1 and can be transfected according to the method of Wilkinson, D. et al, J. Exp. Med., 1988, 167:1442-1458 using DNA encoding DR2 as per Wu, S. et al J. Immunol., 1987, 138:2953). B-cells or L-cells were used at 1×10^6 cells/well in complete media either in the presence or absence of 40 pM MBP or phospholipid protein (PLP) for 2 hours at 37° C., washing twice with 4° C. Hanks (Whittaker), followed by irradiation with 5000 rad. at 4° C. To stimulate T-cells without accessory APCs, 2 μM of MBP, PLP, or the appropriate fragment was added directly to the cells for the duration of the culture: 48 hours, followed by pulsing […] and then harvesting. Ten thousand APC's were used for 100,000 T-cell clones.
T-cell lines shown to be reactive to MBP or PLP were then tested using the same technique for reactivity to overlapping oligopeptide 20-mers encompassing the human MBP sequence as shown in Table 1 above. […]
Of a total of 302 cell lines from patients with MS that could be expanded and confirmed to react with MBP on repeated analysis, 140 (46.4%) reacted with MBP residues 84-102; and approximately 70-80% reacted with either MBP residues 84-102 or 143-168. […] The actual frequency of T-cells derived from the peripheral blood that reacted with each MBP peptide for each individual subject was calculated. […]

[2] = test system: actively induced EAE; assay: Suppression of actively induced EAE (immunization with MBP/CFA); assay type: in vivo, Lewis rats; details: FIG. 7, words
[3] = test system: short term T-cell lines generated from peripheral blood mononuclear cells; assay: Frequency of MBP- and PLP-reactive short term T-cell lines (proliferation assay); assay type: cell-based, human; details: mean +/-SEM
Method: A rapid T-cell cloning technique was used to examine whether there were immunodominant epitopes on human MBP reactive with Class II MHC phenotypes and the frequency of such reactivity. A total of 15,824 short term T-cell lines were generated from 51 human subjects by culturing peripheral blood mononuclear cells ([…]) with purified MBP (100 μg) followed 3 days later, and then every 3-4 days, by the addition of interleukin-2 (IL-2; from ABI, Columbia, Md.) and 2 units recombinant interleukin-4 (IL-4; Genzyme, Boston, Mass.). On Day 13 of culture, an aliquot from each line was tested for reactivity to MBP using the following proliferation assay: T-cell clones (1×10^5 cells/well) were plated in triplicate and cocultured with appropriate stimuli (i.e. 100 μg whole MBP or 5% IL-2) for 72 hours at 37° C., 90% humidity, 5% CO2, in 96 well flat bottomed microtiter plates (Costar). […]
Subjects with other central nervous system diseases had the following diagnoses: 1-3 weeks after either cerebrovascular accident (n=4), brain trauma with CNS hemorrhage (n=4), or metastatic brain tumor (n=2). […] In addition, the frequency of MBP and PLP-reactive lines was calculated separately for each subject by dividing the number of MBP-reactive lines by the total number of lines generated and the mean values +/-SEM are given. […]

HHPARTAHYGSLPQKSEGRT [61-82]
mean frequency of T-cell lines selectively reactive to the peptide, MS vs controls (FIG. 1) [1]: Significant but less striking increases in reactivity

FKGVDAQGTLSKIFKLGGRD [143-168, human MBP amino acid residues 143-168]
fraction of MBP reactive T-cell lines that recognized either the 84-102 or the 143-168 peptide ([1]; control groups, 100 lines): about 34% | fraction of MBP-reactive cell lines that reacted with either MBP residues 84-102 or 143-168 ([1]; patients with MS, 302 cell lines): 70-80% | mean frequency of T-cell lines selectively reactive to the peptide, MS vs controls (FIG. 1) [1]: both MS and control subjects showed high frequencies

guinea pig MBP peptide 131-150: Control guinea pig MBP peptide 131-150 (DYKSKGFKGAHDAQGTLSKI; UniProt P25188 131-150, looked up, fragment)
suppression of EAE via IV tolerization ([2]; administered intravenously prior to immunization): did not suppress | suppression of EAE via oral tolerization ([2]; administered orally prior to immunization): did not suppress

B1: PLP: proteolipid protein, myelin autoantigen (protein, UniProt P60201 2-277, looked up)
Myelin proteolipid protein: GLLECCARCLVGAPFASLVATGLCFFGVALFCGCGHEALTGTEKLIETYFSKNYQDYEYLINVIHAFQYVIYGTASFFFLYGALLLAEGFYTTGAVRQIFGDYKTTICGKGLSATVTGGQKGRGSRGQHQAHSLERVCHCLGKWLGHPDKFVGITYALTVVWLLVFACSAVPVYIYFNTWTTCQSIAFPSKTSASIGSLCADARMYGVLPWNAFPGKVCGSNLLSICKTAEFQMTFHLFIAAFVGAAATLVSLLTFMIAATYNFAVLKLMGRGTKF
MEAN FREQUENCY OF Ag REACTIVE LINES ([3]; MS patients (n = 23)): 3.34 ± 1.56 | MEAN FREQUENCY OF Ag REACTIVE LINES ([3]; other neurological disease (n=10)): 0.90
